{"source": "patent US4340539A", "about": "“Derivatives of 6-bromo penicillanic acid” (priority 1980, dated 1982)", "key": {"β-lactamase enzyme RTEM": {"test_system": "β-lactamase enzyme RTEM", "settings": "cited from earlier work"}, "[1]": {"test_system": "β-lactamase producing strains of S. aureus", "test": "Therapeutic efficacy of amoxicillin in combinations with BL-P2024 in infected mice (Table 7)", "type": "in vivo", "settings": "Staphylococcus aureus, po, read-out: PD50/Treatment"}, "[2]": {"test_system": "β-lactamase producing strains of E. coli", "test": "Therapeutic efficacy of amoxicillin in combinations with BL-P2024 in infected mice (Table 7)", "type": "in vivo", "settings": "oral"}, "[3]": {"test": "Blood levels after oral administration to mice (Table 4)", "type": "in vivo", "settings": "mouse; for concentration at […]: assay organism S. aureus A-9606, read-out: Blood level"}, "in vivo": {"test": "in vivo", "parameters": "species or system mice", "settings": "mouse, blood, po, 100 mg/kg, Test 2, oral 100 mg/kg, 60 min; read-out: Blood level", "from_the_text": "Compounds prepared in 5% Propylene Glycol & TweenCMC-H2 O.\nValues in parentheses are 95% confidence limits.\nAssay Organism: E. coli A9675 (pH = 6.6, 0.1% inoculum)"}, "[4]": {"test": "Blood levels and half-life of BL-P2024 after oral administration of various doses to mice (Table 5)", "type": "in vivo", "settings": "mouse; for concentration at 0.5 h: 30 min; for concentration at 2 h: 120 min; for concentration at 1 h: 60 min"}, "Hygroscopicity": {"test": "Hygroscopicity", "type": "physicochemical", "settings": "listed as 2β-chloromethyl-2α-methylpenam-3α-carboxylic acid sulfone"}, "[5]": {"test": "Storage stability of free acid", "type": "physicochemical", "settings": "23° C., seven days"}, "bacteria": {"test_system": "bacteria", "settings": "cited from earlier work"}, "β-lactamase": {"test_system": "β-lactamase", "settings": "cited from earlier work"}, "[6]": {"test_system": "β-lactamase-producing strains", "settings": "in vitro and in vivo; cited from earlier work"}, "[7]": {"settings": "oral 25 mg/kg, read-out: Blood level"}, "[8]": {"settings": "oral 50 mg/kg, read-out: Blood level"}, "[9]": {"settings": "oral 100 mg/kg, read-out: Blood level"}, "[10]": {"settings": "oral 200 mg/kg, assay organism S. aureus A9606, read-out: Blood level"}}, "note": "Where two headings read alike, the source gives them in different places."}
{"molecule": "CC1(C)[C@H](C(=O)O)N2C(=O)C(Br)[C@H]2S1(=O)=O", "note": "(stereo partly drawn) [(2S,5R,6S)-6β-Bromo-3,3-dimethyl-7-oxo-4-thia-1-azabicyclo[3.2.0]heptane-2-carboxylic acid, S,S-dioxide]", "values": [{"measurement": "inhibition of RTEM", "setting": "β-lactamase enzyme RTEM", "result": "inhibit the action of the β-lactamase enzyme RTEM"}]}
{"molecule": "CC(C)(C)C(=O)OCOC(=O)C1N2C(=O)CC2S(=O)(=O)C1(C)CCl", "note": "(stereo not drawn) [BL-P2024, Pivaloyloxymethyl 2β-Chloromethyl-2α-methylpenam-3α-carboxylate Sulfone]", "values": [{"measurement": "ED50", "setting": "[1]; S. aureus A15091, challenge 5 × 10^8, vehicle TCMC", "result": "> 200", "unit": "mg/kg"}, {"measurement": "ED50", "setting": "[1]; S. aureus A20379, challenge 5 × 10^8, vehicle TCMC", "result": 200, "unit": "mg/kg"}, {"measurement": "PD50/Treatment", "setting": "[2]; E. coli A9675, challenge 6 × 10^5, vehicle TCMC", "result": "> 200", "unit": "mg/kg"}, {"measurement": "PD50/Treatment", "setting": "[2]; E. coli A9675, challenge 7 × 10^5, vehicle 50% DMSO", "result": "> 25", "unit": "mg/kg"}, {"measurement": "PD50/Treatment", "setting": "[2]; E. coli A9675, challenge 7 × 10^5, vehicle TCMC", "result": "> 25", "unit": "mg/kg"}, {"measurement": "PD50/Treatment", "setting": "[2]; E. coli A9675, challenge 9 × 10^5, vehicle 50% DMSO", "result": "> 25", "unit": "mg/kg"}, {"measurement": "concentration at […]", "setting": "[3]; 100 mg/kg, oral 100 mg/kg, 15 min", "result": 13100, "unit": "ng/mL"}, {"measurement": "half-life", "setting": "[3]; 100 mg/kg, oral 100 mg/kg, assay organism E. coli A-9675", "result": 1.17, "unit": "h"}, {"measurement": "half-life", "setting": "[3]; 100 mg/kg, oral 100 mg/kg, assay organism S. aureus A-9606", "result": 1, "unit": "h"}, {"measurement": "concentration at […]", "setting": "[3]; 200 mg/kg, oral 200 mg/kg, 150 min", "result": "> 2500", "unit": "ng/mL"}, {"measurement": "half-life", "setting": "[3]; 200 mg/kg, oral 200 mg/kg, assay organism S. aureus A-9606", "result": 1, "unit": "h"}, {"measurement": "concentration at 1 h", "setting": "in vivo", "result": 7800, "unit": "ng/mL"}, {"measurement": "half-life", "setting": "[4]; oral 25 mg/kg", "result": 0.667, "unit": "h"}, {"measurement": "concentration at […]", "setting": "[4]; oral 25 mg/kg, 15 min, read-out: Blood level", "result": 5900, "unit": "ng/mL"}, {"measurement": "concentration at 0.5 h", "setting": "[4]; [7]", "result": 6200, "unit": "ng/mL"}, {"measurement": "concentration at […]", "setting": "[4]; oral 25 mg/kg, 90 min, read-out: Blood level", "result": 1900, "unit": "ng/mL"}, {"measurement": "concentration at 2 h", "setting": "[4]; [7]", "result": 1300, "unit": "ng/mL"}, {"measurement": "concentration at […]", "setting": "[4]; oral 25 mg/kg, 150 min, read-out: Blood level", "result": 700, "unit": "ng/mL"}, {"measurement": "half-life", "setting": "[4]; oral 50 mg/kg", "result": 1, "unit": "h"}, {"measurement": "concentration at […]", "setting": "[4]; oral 50 mg/kg, 15 min, read-out: Blood level", "result": 7700, "unit": "ng/mL"}, {"measurement": "concentration at 0.5 h", "setting": "[4]; [8]", "result": 9500, "unit": "ng/mL"}, {"measurement": "concentration at 1 h", "setting": "[4]; [8]", "result": 6300, "unit": "ng/mL"}, {"measurement": "concentration at […]", "setting": "[4]; oral 50 mg/kg, 90 min, read-out: Blood level", "result": 4700, "unit": "ng/mL"}, {"measurement": "concentration at […]", "setting": "[4]; oral 50 mg/kg, 150 min, read-out: Blood level", "result": 2300, "unit": "ng/mL"}, {"measurement": "half-life", "setting": "[4]; oral 100 mg/kg", "result": 1.42, "unit": "h"}, {"measurement": "concentration at […]", "setting": "[4]; oral 100 mg/kg, 15 min, read-out: Blood level", "result": 12300, "unit": "ng/mL"}, {"measurement": "concentration at 0.5 h", "setting": "[4]; [9]", "result": 12200, "unit": "ng/mL"}, {"measurement": "concentration at 1 h", "setting": "[4]; [9]", "result": 9400, "unit": "ng/mL"}, {"measurement": "concentration at […]", "setting": "[4]; oral 100 mg/kg, 90 min, read-out: Blood level", "result": 7200, "unit": "ng/mL"}, {"measurement": "concentration at 2 h", "setting": "[4]; [9]", "result": 5700, "unit": "ng/mL"}, {"measurement": "concentration at […]", "setting": "[4]; oral 100 mg/kg, 150 min, read-out: Blood level", "result": 4600, "unit": "ng/mL"}, {"measurement": "concentration at […]", "setting": "[4]; oral 200 mg/kg, 15 min, assay organism S. aureus A9606, read-out: Blood level", "result": 14700, "unit": "ng/mL"}, {"measurement": "concentration at 0.5 h", "setting": "[4]; [10]", "result": 14400, "unit": "ng/mL"}, {"measurement": "concentration at 1 h", "setting": "[4]; [10]", "result": 9800, "unit": "ng/mL"}, {"measurement": "concentration at […]", "setting": "[4]; oral 200 mg/kg, 90 min, assay organism S. aureus A9606, read-out: Blood level", "result": 8700, "unit": "ng/mL"}, {"measurement": "concentration at 2 h", "setting": "[4]; [10]", "result": 5100, "unit": "ng/mL"}, {"measurement": "half-life", "setting": "[4]; oral 200 mg/kg, assay organism S. aureus A9606", "result": 1, "unit": "h"}]}
{"molecule": "CC1(CCl)C(C(=O)O)N2C(=O)CC2S1(=O)=O", "note": "(stereo not drawn) [BL-P2013 free acid, 2β-chloromethyl-2α-methylpenam-3α-carboxylic acid sulfone]", "values": [{"measurement": "hygroscopicity", "setting": "Hygroscopicity", "result": "hygroscopic"}, {"measurement": "storage stability", "setting": "[5]", "result": "unstable"}]}
{"molecule": "CC1(C)[C@H](C(=O)O)N2C(=O)C[C@H]2S1(=O)=O", "note": "[CP-45899]", "values": [{"measurement": "antibacterial activity", "setting": "bacteria", "result": "weak antibacterial activity"}, {"measurement": "β-lactamase inhibition", "setting": "β-lactamase", "result": "irreversibly acting β-lactamase inhibitor"}, {"measurement": "potentiation of ampicillin", "setting": "[6]", "result": "potentiates the in vitro and in vivo activities of ampicillin"}]}
